In patent US12703728B2, “Interleukin 29 mutant protein” (priority 2020, dated 2026):
Where two headings read alike, the source gives them in different places.

How the values were obtained:
[1] = tested on: respiratory syncytial virus; assay: In vitro efficacy on RSV-infected human bronchial epithelial cells (HBEC); assay type: cell-based; conditions: for Average inhibition rate (%): HBEC, RSV
Protocol: RSV with a titer of 100, TCID50 (half of the infective dose of tissue culture) was added to each of the activity test wells, culturing the cells in 37° C. and 5% CO2 incubator for 3 days, then RSV RNA was extracted from the cells by using the RNA Extraction Kit (Catlog: 74181, Qiagen), and quantified by RT-qPCR.

novel coronavirus = assay: organism not typed; assay type: cell-based, African green monkey
Vero cells = assay: Toxic effects on Vero cells by CCK-8 assay; conditions: 50 μmol/L and below, 48 h, CCK-8
[2] = Toxic effects on Vero cells by CCK-8 assay; conditions: African green monkey, Vero cells
[3] = Stability of IL29 mutants at 50° C.; assay type: physicochemical; conditions: 50° C./75% relative humidity, reporter gene method
HEK293-ISRE-Luc cells = assay type: cell-based; conditions: for EC50: HEK293-ISRE-Luc reporter gene method; for EC50/biological activity as compared with IL29 control (in words): reporter gene method
From the text: The reporter gene method refers to ligating the promoter of interferon-stimulated response element (ISRE) to alkaline phosphatase cDNA, and transfecting them into HEK293 cells, and evaluating IL29 activity by measuring alkaline phosphatase in supernatant of HEK293 cells after IL29 stimulation (LaFleur D W, Nardelli B, Tsareva T Et al. Interferon-kappa, a novel type I interferon expressed in human keratinocytes. [J]. J. Biol. Chem., 2001, 276:39765-71).
HEK293-ISRE-Luc cells (purchased from National institutes for Food and Drug Control) were allowed to grow adherently in complete culture medium. The cells were passaged at a ratio of 1:4, 2-3 times per week, growing in complete culture medium. The cultured cells were taken to discard the culture medium, and the cells were washed once with PBS and then digested and collected; and the cell suspension containing 3.5×10^5 to 4.5×10^5 cells per 1 ml was prepared with assay culture medium (BIBCO).

[4] = Stability of IL29 mutants at 50° C.; assay type: physicochemical; conditions: 50° C./75% relative humidity; for Reduction on Day 14 as compared with Point 0 (%): reversed-phase HPLC main peak
Protocol: (§1) The mobile phase A (acetonitrile:water:trifluoroacetic acid, in the volume ratio of 20:80:0.1) and the mobile phase B (acetonitrile:water:isopropanol:trifluoroacetic acid, in the volume ratio of 70:20:10:0.1) were prepared; and a chromatographic column (XBridge BEH C18 Column, 130A, 5 μm, 4.6 mm*100 mm) was used to analyze each test sample of proteins. The analytical conditions were as follows: flow rate 1.0 ml/min, acquisition time: 65 min, acquisition wavelength 214 nm, column temperature 45° C., and elution gradient as shown in Table 1 below.
Two injections of stock solution of a test sample were loaded in parallel, and the loading volume was set as15 μg-20 μg according to the sample concentration; finally, the purity of the main peak of the test sample was calculated by integrating according to the area normalization method.
The details are shown in Table 5, while the purity values at day 0 and 14 in Table 5 were used to make contrast chromatogram, as shown in FIGS. 3-10.

[5] = Nebulization stability test
Protocol: A jet nebulizer of PARI LCD type and TurboBOY N nebulizer pump from Germany were used for nebulization tests. 2 ml of sample was nebulized, and aerosol was collected in the manner below according to FIG. 11; as for the collected sample, the purity of each test sample of IL29 mutants was detected according to the same method as in Example 2.2.1 by reversed-phase high performance liquid phase, thereby verifying the nebulization stability of each mutant.

[6] = assay type: physicochemical; conditions: 25° C./60% relative humidity/5000 lux
Protocol: as §1
The mobile phase A (25 mmol/L phosphate buffer, pH 7.0) and mobile phase B (25 mmol/L phosphate buffer, 0.5 mol/L sodium chloride, pH 6.7) were prepared, and a chromatographic column (Thermo ProPac WCX-10 4.0*250 mm) was used to analyze each test sample of proteins. The analytical conditions were as follows: flow rate 0.8 ml/min, acquisition time: 55 min, acquisition wavelength 214 nm, column temperature 25° C., and elution gradient as shown in Table 2 below.
The stability of IL29 mutants was detected under the condition 25° C.±2° C./60% relative humidity ±5% relative humidity/5000±500 lux, samples were taken according to Table 6, and the same method in Example 2 was used to detect the stability of IL29 mutants.

[7] = Positive control group, 0.03 μM

## O=c1n(Cc2nc3ccccc3n2CCCCO)c2cnccc2n1C1CC1 [BMS-433771]
[1]; HBEC cell model, RSV RNA by RT-qPCR
  EC50: 213 nM
[1]; 10 nM
  Average inhibition rate (%): 31.65%
[1]; 50 nM
  Average inhibition rate (%): 29.30%
[1]; 250 nM
  Average inhibition rate (%): 85.31%
[1]; 1250 nM
  Average inhibition rate (%): 97.91%

## CCC(CC)COC(=O)[C@H](C)N[P@](=O)(OC[C@H]1O[C@@](C#N)(c2ccc3c(N)ncnn23)[C@H](O)[C@@H]1O)Oc1ccccc1 [Remdesivir]
Novel coronavirus; [7]
  Ct Value 1: 17.05
  Ct Value 2: 16.86
  Ct Value 3: 17.71
  Ct Value Mean: 17.21
Novel coronavirus; Positive control group, 0.1 μM
  Ct Value 1: 17.63
  Ct Value 2: 17.75
  Ct Value 3: 17.57
  Ct Value Mean: 17.65
Novel coronavirus; Positive control group, 0.3 μM
  Ct Value 1: 20.83
  Ct Value 2: 20.76
  Ct Value 3: 19.75
  Ct Value Mean: 20.45
Novel coronavirus; Positive control group, 1 μM
  Ct Value 1: 27.63
  Ct Value 2: 26.97
  Ct Value 3: 26.91
  Ct Value Mean: 27.17
Novel coronavirus; Positive control group, 3 μM
  Ct Value 1: 30.57
  Ct Value 2: 33.96
  Ct Value 3: 33.11
  Ct Value Mean: 32.55
Novel coronavirus; Positive control group, 10 μM
  Ct Value 1: 34.85
  Ct Value 2: 33.56
  Ct Value 3: 34.75
  Ct Value Mean: 34.39
Novel coronavirus; Vero, Positive control group, 0.03 μM, read-out: Average inhibition rate (%)
  inhibition at 0.03 µM: 17.5%
Novel coronavirus; Vero, Positive control group, 0.1 μM, read-out: Average inhibition rate (%)
  inhibition at 0.1 µM: 39.3%
Novel coronavirus; Vero, Positive control group, 0.3 μM, read-out: Average inhibition rate (%)
  inhibition at 0.3 µM: 91.3%
Novel coronavirus; Vero, Positive control group, 1 μM, read-out: Average inhibition rate (%)
  inhibition at 1 µM: 99.9%
Novel coronavirus; Vero, Positive control group, 3 μM, read-out: Average inhibition rate (%)
  inhibition at 3 µM: 100%
Novel coronavirus; Vero, Positive control group, 10 μM, read-out: Average inhibition rate (%)
  inhibition at 10 µM: 100%
Novel coronavirus; Vero, positive control group
  IC50: 120 nM
Novel coronavirus; positive control group, concentrations of 0.3 µM and above
  inhibition against the virus: ≥ 90%
Vero cells
  toxic effect on Vero cells: no obvious toxic effect
[2]
  CC50 at 48 h: > 50000 nM

B1: IL29DE (protein)
chain: MKPTTTGKGCHIGRFKSLSPQELASFKKARDALEESLKLKNWSCSSPVFPGNWDLRLLQVRERPVALEAELALTLKVLEAAAGPALEDVLDQPLHTLHHILSQLQACIQPQPTAGPRPRGRLHHWLHRLQEAPKKESAGCLEASVTFNLFRLLTRDLKYVAEGNLCLRTSTHPEST
[3]
  biological activity in 14 days at 50° C.: basically unchanged
HEK293-ISRE-Luc cells
  Relative biological activity (%): 282%
  EC50: 1.697 ng/mL
  EC50/biological activity as compared with IL29 control (in words): increased by nearly three times
[4]; Day 7
  Main peak (%), reversed-phase HPLC purity: 89.35%
[4]; Day 14
  Main peak (%), reversed-phase HPLC purity: 77.39%
[4]; Point 0
  Main peak (%), reversed-phase HPLC purity: 92.68%
[4]
  Reduction on Day 14 as compared with Point 0 (%): 15.29%

B2: IL29CS (protein)
chain: MKPTTTGKGCHIGRFKSLSPQELASFKKARDALEESLKLKNWSCSSPVFPGNWDLRLLQVRERPVALEAELALTLKVLEAAAGPALEDVLDQPLHTLHHILSQLQACIQPQPTAGPRPRGRLHHWLHRLQEAPKKESAGCLEASVTFNLFRLLTRDLKYVADGNLSLRTSTHPEST
[5]
  Reverse-phase purity After nebulization: 85.26%
[5]; jet nebulizer, 2 ml sample
  Reverse-phase purity Before nebulization: 96.65%
[5]; reverse-phase purity
  Difference between purity before and after nebulization: 10.39%
[6]; day 0
  Ion exchange purity (%): 97.00%
  Reversed-phase HPLC purity (%): 95.361%
[6]; day 5
  Ion exchange purity (%): 89.28%
  Reversed-phase HPLC purity (%): 90.756%
[6]; day 10
  Ion exchange purity (%): 77.14%
  Reversed-phase HPLC purity (%): 84.30%
HEK293-ISRE-Luc cells
  EC50: 4.639 ng/mL
  EC50/biological activity as compared with IL29 control (in words): essentially no change
[4]; Day 7
  Main peak (%), reversed-phase HPLC purity: 64.66%
[4]; Day 14
  Main peak (%), reversed-phase HPLC purity: 46.20%
[4]; Point 0
  Main peak (%), reversed-phase HPLC purity: 97.03%
[4]
  Reduction on Day 14 as compared with Point 0 (%): 50.83%

B3: IL29 control: IL29 wild-type protein, amino acid sequence SEQ ID NO: 1 with an additional M amino acid at the N-terminal (protein)
chain: KPTTTGKGCHIGRFKSLSPQELASFKKARDALEESLKLKNWSCSSPVFPGNWDLRLLQVRERPVALEAELALTLKVLEAAAGPALEDVLDQPLHTLHHILSQLQACIQPQPTAGPRPRGRLHHWLHRLQEAPKKESAGCLEASVTFNLFRLLTRDLKYVADGNLCLRTSTHPEST
modifications: additional N-terminal Met
HEK293-ISRE-Luc cells
  EC50: 4.783 ng/mL
[4]; Day 7
  Main peak (%), reversed-phase HPLC purity: 56.70%
[4]; Day 14
  Main peak (%), reversed-phase HPLC purity: 34.46%
[4]; Point 0
  Main peak (%), reversed-phase HPLC purity: 85.82%
[4]
  Reduction on Day 14 as compared with Point 0 (%): 51.36%
